Each structure is given as a SMILES string. In brackets after ≈: the same amount, converted by molar mass.

In data set [1] the target is T1, Adenosine receptor A1 (Homo sapiens) (UniProt P30542).
T1 sequence (whole entry): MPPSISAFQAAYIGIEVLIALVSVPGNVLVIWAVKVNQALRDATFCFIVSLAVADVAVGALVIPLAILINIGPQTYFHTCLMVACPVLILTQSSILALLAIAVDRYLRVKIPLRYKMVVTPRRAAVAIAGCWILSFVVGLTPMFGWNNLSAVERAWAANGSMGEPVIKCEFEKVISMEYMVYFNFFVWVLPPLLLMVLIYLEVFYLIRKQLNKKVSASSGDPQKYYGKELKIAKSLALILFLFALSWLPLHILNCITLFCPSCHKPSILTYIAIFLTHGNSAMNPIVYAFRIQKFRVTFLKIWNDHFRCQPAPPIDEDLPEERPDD
Kind of data set: Antagonist activity at recombinant human adenosine A1 receptor assessed as inhibition of agonist-induced cAMP induction at 10 uM by HTRF assay. It counts as functional. (In general: In TR-FRET formats the signal depends on donor and acceptor labels being close together.)

For data set [2], the target named is Sigma non-opioid intracellular receptor 1 (Homo sapiens, UniProt Q99720). In words: Displacement of [3H](+)-pentazocine from S1R in human Jurkat cell membranes after 2 hrs by liquid scintillation counting.
Data set [3] has as its target Sigma intracellular receptor 2 (Homo sapiens, UniProt Q5BJF2). Kind of data set: Displacement of [3H]-DTG from S2R in human Jurkat cell membranes after 1 hr in presence of (+)-pentazocine by liquid scintillation counting. In general terms: Loss of bound radioactivity is the signal in a displacement assay; it reports binding, not function.
A short description of data set [4]: n-Octanol-PBS buffer distribution coefficient, log D of the compound at pH 7.4. It counts as physicochemical.
Data set [5] in a line: Metabolic stability in human liver microsomes by LC/MS analysis. It counts as ADME, microsome.
Data set [6] is described as follows: Aqueous solubility of the compound in PBS buffer at pH 7.8. The format is physicochemical.

Sequence of Sigma non-opioid intracellular receptor 1 (Q99720 whole entry): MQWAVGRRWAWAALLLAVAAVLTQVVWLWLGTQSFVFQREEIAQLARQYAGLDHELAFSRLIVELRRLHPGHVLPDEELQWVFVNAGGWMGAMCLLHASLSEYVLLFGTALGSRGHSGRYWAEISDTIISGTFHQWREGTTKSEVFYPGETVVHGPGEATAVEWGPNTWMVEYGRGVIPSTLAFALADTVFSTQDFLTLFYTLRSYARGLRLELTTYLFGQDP
Sequence of Sigma intracellular receptor 2 (Q5BJF2 whole entry): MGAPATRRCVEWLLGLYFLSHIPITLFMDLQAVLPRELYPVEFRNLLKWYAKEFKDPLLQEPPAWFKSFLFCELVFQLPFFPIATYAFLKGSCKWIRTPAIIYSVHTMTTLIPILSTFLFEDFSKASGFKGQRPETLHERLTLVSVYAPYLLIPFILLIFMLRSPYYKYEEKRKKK

Turning to `CCCc1ccc(C(=O)NCCCN(C)Cc2ccccc2)cc1`, the inhibition in data set [1] was -9%. Still for that read-out and setting: the value for `CN(CCNC(=O)c1ccc(C#N)cc1)Cc1ccccc1` was 2%. In the case of `CN(CCNC(=O)c1ccc(Cl)cc1)Cc1ccccc1`, the Ki in data set [2] came to 3.6 nM; in data set [3] it was 850 nM.

Consider `COc1cccc(C(=O)NCCCN(C)Cc2ccccc2)c1`, for which the inhibition in data set [1] was -2%. For `CN(CCCNC(=O)c1ccc(Cl)cc1)CCc1ccccc1`, the inhibition in data set [1] was -10%. In the case of `CN(CCCNC(=O)c1ccc(Cl)cc1)Cc1ccccc1`, the logD in data set [4] was determined as 2.51. The compound also yielded a Stability in data set [5] of 77%. Besides, the solubility in data set [6] came out at 173 µM (≈ 54.8 µg/mL).

Broadly, the inhibition is the change of the read-out against control, counted positive when it falls. In general, Ki refers to a measure of affinity in units of concentration, obtained from inhibition or displacement. One may read the logD as lipophilicity at a set pH, counting ionised and neutral species. Higher therefore signals a more lipophilic compound. The term solubility denotes the dissolved amount per volume that the medium holds.

The values are drawn from ChEMBL document CHEMBL4130363, “Synthesis and pharmacological evaluation of benzamide derivatives as potent and selective sigma-1 protein ligands” (Eur J Med Chem, 2017).
